# Test results: patent US20240345376A1, “SYSTEM AND METHOD FOR NANOSCALE AXIAL LOCALIZATION AND SUPER […] IMAGING WITH HEIGHT-[…]” (The George Washington University, priority 2021, published 2024)
# Test system: SKBR3 cells
# Assay: Plasma membrane tension and bending modulus mapping from MAxSIM height fluctuation data in live cells
# Assay type: cell-based
# Settings: 5 μM for 30 minutes, FIG. 12C
# Excerpt: Analysis of single-pixel-level plasma membrane biomechanics in live cells using the time-dependent membrane heights acquired by MAxSIM imaging: Utilizing MAxSIM technology, we mapped the membrane tension and bending modulus of plasma membranes in MCF7 cells (low HER2 expression) and SKBR3 (HER2 overexpression enabling constitutive HER2 activity). […] This approach, based on the Helfrich-Canham model, has been commonly employed in the literature, allowing the membrane tension (o) and bending modulus (K) to be linked to height fluctuations by the following equation.
# where ? |h(q)|^2 ? represents the power spectral density of the membrane height fluctuations, q is the wave vector, kbT is the thermal energy, σ is the membrane tension, and κ is the bending modulus. From fitting the raw experimental data to this function, membrane tension (σ) and bending modulus (κ) are extracted (FIGS. 12A, 12B, 12C). To identify mechanical compartments, we will utilize and compare various cluster analysis methods we have tested, including K-means analysis, which groups similar data points into K clusters based on their proximity to cluster centers, and DBscan, a density-based clustering algorithm that groups data points based on their proximity.
# 1. Super-resolution imaging and single-molecule-tracking tools and mechanical property measurements: a. […]
smiles,measurement,value
C/C1=C/C(=O)O[C@@H]2C[C@@H](CC[C@H](C)/C=C\C=C\CC1)O[C@@](O)([C@@H]1CSC(=O)N1)C2 [latrunculin A],mechanical compartmentalization (membrane tension and bending modulus) on the basal plasma membrane,significant reduction
